Active and inactive are the calls of the source.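 How the source made its calls: active means mean IC50, the dose halving TNF-driven NF-kB light signal, at or below a set limit; inactive means the rest.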
Tested on: HEK-293T NF-kB-Luc, TNFa-induced, luminescence, 14 h
Test: inhibitors of TNFa-induced NF-kB reporter, dose response, counter-screen for BCR/TCR NF-kB inhibitor project, cell-based, HEK-293T NF-kB-Luc, luminescence, hits from both screens (AID 489020);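 further: TNF-alpha stimulus at 0.1 ng/mL added with the seeded cells; selectivity counterscreen for hits from B- and T-cell receptor NF-kB screens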

Row | SMILES | IC50
1 | O=C(CN1C(=O)c2ccccc2S1(=O)=O)c1ccc2c(c1)OCCCO2 | < 0.16 µM
2 | Cc1cc(NNC(=O)Nc2cccc(Cl)c2)nc2c1c(C)nn2C | 0.47 µM
3 | Nc1ncnc2c1ccn2[C@@H]1O[C@H](CO)[C@@H](O)[C@H]1O | 7.42 µM
4 | C=CCn1c(C)cc(C(=O)CN2C(=O)c3ccccc3S2(=O)=O)c1C | 0.17 µM
5 | Cc1ccc(Cn2ccsc2=NC(=O)CCl)cc1 | 15.5 µM
6 | O=C(NCCNCCO)C1(C(F)(F)F)C/C(=C\CCO)CCCO1 (stereo not drawn) | > 80 µM (inactive)
7 | CC1CCN(c2nc3ccc(C(=O)O)cc3s2)CC1 | 4.09 µM
8 | O=C(CCl)N=c1sccn1Cc1ccccc1Cl | 10.1 µM
9 | C#CC(=O)N(c1ccc(OC)cc1OC)C(C(=O)NC1CCCC1)c1cccs1 (stereo not drawn) | 4.97 µM
10 | Cc1cc(CSc2ccccc2)ccc1NC(=O)c1ccc(CN2CCOCC2)cc1 | 0.26 µM
11 | CC(C)Cc1cc(C(C)(C)C)ccc1OC(=S)N(C)C | > 80 µM (inactive)
12 | COc1cc2nc(NC(=O)c3ccccc3)sc(=O)c2cc1OC | > 80 µM (inactive)
13 | CC(=O)OC(C)(C)/C=C/C(=O)[C@](C)(O)C1[C@H](O)C[C@@]2(C)C3CC=C4C(C[C@H](O)C(=O)C4(C)C)[C@]3(C)C(=O)C[C@]12C (stereo partly drawn) | 11.3 µM
14 | C#CC(=O)N(c1cc(OC)ccc1OC)C(C(=O)NC1CCCC1)c1cccs1 (stereo not drawn) | 3.85 µM
15 | COc1cc2c(cc1OC)[C@@H]1C(=O)c3ccc4c(c3O[C@@H]1CO2)C[C@H](C(C)C)O4 | < 0.16 µM
16 | COc1ccc(-c2cc3nc(C)n(N)c(=O)c3s2)cc1 | 0.87 µM
17 | Cn1nc(CC(=O)Nc2ccc3c(c2)OCCO3)c2ccccc2c1=O | 0.6 µM
18 | COc1cc(NC(C)CCCN)c2ncccc2c1 (stereo not drawn) | 22.9 µM (inactive)
19 | C[n+]1c(-c2ccccc2)c2cc(N)ccc2c2ccc(N)cc21 | 8.25 µM
20 | N#Cc1c(NC(=O)CSc2ncn[nH]2)sc2c1CCCCC2 | 0.18 µM
21 | O=C(Nc1ccc([N+](=O)[O-])cc1)C(=O)Nc1cccc(C(=O)O)c1 | 4.3 µM
22 | N=c1ccn2c(n1)O[C@H]1[C@@H](CO)[C@H](O)O[C@H]12 | > 80 µM (inactive)

Row | SMILES | IC50
23 | COc1ccc(CNc2ncc(-c3ccc(F)cc3)n2C)c2ccccc12 | 17.8 µM
24 | CCCCCCn1ccc(=N)cc1 | 13.1 µM
25 | CCOc1ccc(-n2c(-c3ccc(OC)cc3)c[n+]3c2CCCCC3)cc1 | 1.06 µM
26 | CN=c1scc(-c2ccccc2F)n1/N=C/c1ccc[nH]1 | 1.21 µM
27 | Nc1nc(F)nc2c1ncn2[C@@H]1O[C@H](CO)[C@@H](O)[C@H]1O | 7.24 µM
28 | COc1ccc(NS(=O)(=O)c2cccc(NC(=O)c3ccc(Cl)nc3)c2)cc1 | 0.31 µM
29 | O=C(NCCc1ccccc1F)c1ccc2c(c1)OCCO2 | 1.42 µM
30 | O=C(COC(=O)c1ccc[nH]c1=O)Nc1ccc(N2CCCCC2)cc1 | 1.2 µM
31 | Cc1cc(Cl)c(S(=O)(=O)N2CCN(c3ccc(F)cc3)CC2)cc1OCC(=O)NC1CCCCC1 | < 0.16 µM
32 | CCN1/C(=C\c2ccc3ccccc3[n+]2CC)Sc2cc(C)ccc21 | 0.63 µM
33 | COc1ccc(/C=C2\SC(=O)N(CCCC(=O)Nc3cc(Cl)ccc3C(=O)O)C2=O)cc1 | 1.12 µM
34 | N#CC(c1cccc(Cl)c1)c1ccc2c(C(F)(F)F)cc(C(F)(F)F)nc2n1 (stereo not drawn) | > 80 µM (inactive)
35 | COC(=O)CCn1nnc(-c2ccc(C(C)C)cc2)n1 | 0.27 µM
36 | CC1(c2ccc3ccccc3c2)NC(=O)N(CC(=O)N2CCN(Cc3ccc(C#N)cc3)CC2)C1=O (stereo not drawn) | 0.21 µM
37 | CN(C)c1cc[n+](CC(=O)c2ccc(-c3ccccc3)cc2)cc1 | 3.96 µM
38 | CCN(CC)S(=O)(=O)c1ccc(Oc2ccc(S(=O)(=O)N(CC)CC)cc2)cc1 | 0.46 µM
39 | O=C(CSc1nnnn1C1CC2CCC1C2)Nc1ccnc2ccccc12 (stereo not drawn) | < 0.16 µM
40 | C=C1C(O)[C@@H]2O[C@]3(CC[C@H](/C=C/C(C)[C@@H]4CC(C)=CC5(O[C@H](C[C@@](C)(O)C(=O)O)CCC5O)O4)O3)CC[C@H]2O[C@@H]1C(O)CC(C)[C@H]1OC2(CCCCO2)CCC1C (stereo partly drawn) | 0.31 µM
41 | O=C(CN1C(=O)c2ccccc2S1(=O)=O)c1ccc2c(c1)OCCO2 | 0.2 µM
42 | COc1ccc(C(=O)CN2C(=O)c3ccccc3S2(=O)=O)cc1 | 0.79 µM
43 | COc1cc(SC)ccc1C(=O)Nc1nc2ccccc2[nH]1 | 0.2 µM
44 | Cc1ccc(-c2csc(NC(=O)C3CCN(S(=O)(=O)c4cccs4)CC3)n2)cc1 | 2.14 µM

Row | SMILES | IC50
45 | CC1CCc2c(sc(NC(=O)CSc3ncn[nH]3)c2C#N)C1 (stereo not drawn) | 0.61 µM
46 | CCn1c(C)cc(C(=O)COC(=O)c2ccccc2[N+](=O)[O-])c1C | < 0.16 µM
47 | CCn1c(C)nc2cc(-c3nc4n(n3)Cc3ccccc3-4)ccc21 | 0.24 µM
48 | CC(C)c1ccc(-c2nnn(CCC(=O)O)n2)cc1 | 0.38 µM
49 | CCCCCc1ccc(OCCCC[n+]2cccc(C)c2)c(CCCCC)c1 | 6.07 µM
50 | COc1ccc(C[C@H]2NC[C@H](O)[C@H]2OC(C)=O)cc1 | < 0.16 µM
51 | Cc1ccc(NC(=O)COc2ccc(N(C)C(=O)C(C)(C)C)cc2)cc1S(=O)(=O)N1CCCCC1 | 1.74 µM
52 | N=c1c2c(n(Cc3ccc(Br)cc3)c3c1CCC3)CCCC2 | 4.3 µM
53 | C[C@H](NC(=O)c1nc[nH]c1C(=O)N[C@@H](C)C(=O)OCc1ccccc1)C(=O)OCc1ccccc1 | > 80 µM (inactive)
54 | CCCCCCCCCCCCn1ccc(=N)cc1 | 2.39 µM
55 | CCN1/C(=C/c2ccc3cc(C)ccc3[n+]2CC)Sc2ccccc21 | 0.32 µM
56 | COc1ccc(/C=C/c2cc(-c3ccc(C)cc3)o[n+]2C)cc1 | 6.71 µM
57 | COc1ccc(CN(C)c2ccc(S(=O)(=O)N3CCN(C)CC3)cc2[N+](=O)[O-])cc1OC | < 0.16 µM
58 | COc1cc(CSc2nnnn2-c2ccc(C)cc2)cc(OC)c1OC | 0.47 µM
59 | CCCCC[n+]1cccc2c3ccccc3ccc21 | 2.13 µM
60 | COc1cc([N+](=O)[O-])cc(/C=N/NC(=O)c2ccc(NC(=O)c3ccc(C)cc3)cc2)c1O | 22.5 µM (inactive)
61 | Cc1ccc(C(=O)CN2C(=O)c3ccccc3S2(=O)=O)cc1 | 1.89 µM
62 | N#Cc1c(NC(=O)CSc2ncn[nH]2)sc2c1CCCC2 | 0.61 µM
63 | CC[n+]1c(C=C2C=C(C)OC(C)=C2)sc2ccccc21 | 1.9 µM
64 | CCCCCNC(=O)c1ccc2c(=O)n(CC3CCCO3)c(=O)[nH]c2c1 (stereo not drawn) | > 80 µM (inactive)
65 | Cc1cc(Cl)c(S(=O)(=O)N2CCCCCC2)cc1OCC(=O)NC1CCCCC1 | 0.24 µM
66 | O=S(=O)(NCC1CCCO1)c1ccc(-c2ccc(S(=O)(=O)NCC3CCCO3)cc2)cc1 (stereo not drawn) | 0.32 µM

Row | SMILES | IC50
67 | NC1=NC[C@H](Cc2ccc(O)cc2)N1CCCCC1CCCCC1 | 12.9 µM
68 | Cc1ccnc(NC(=O)CCCOc2cc(=O)n(C)c3ccccc23)c1 | 5.93 µM
69 | CCCCCCCCCCOC(=O)Cn1c(COc2ccccc2OC)[n+](C)c2ccccc21 | 3.08 µM
70 | Nc1nc(Cl)nc2c1ncn2[C@H]1C[C@H](O)[C@@H](CO)O1 | 18.4 µM
71 | C#CC(=O)N(c1ccc(OC)c(OC)c1)C(C(=O)NC1CCCC1)c1cccs1 (stereo not drawn) | 4.77 µM
72 | CC1CCCN(c2ccc([N+](=O)[O-])cc2C(=O)c2ccccc2)C1 (stereo not drawn) | 10.1 µM
73 | c1ccc(-c2ccc(-c3nc(-c4ccccn4)no3)cc2)cc1 | 1.69 µM
74 | COc1ccc(-c2nc(-c3ccccn3)no2)cc1 | 2 µM
75 | CCC(C)(C)c1ccc(OCCCC[n+]2ccc(C)cc2)c(C(C)(C)CC)c1 | 8.16 µM
76 | Cc1cc2sc3ccc(C#CC4(O)CCCCC4)cc3c(=O)c2cc1C | < 0.16 µM
77 | Cn1nccc1C(=O)NC1CCCc2c1cnn2-c1ccccc1F (stereo not drawn) | < 0.16 µM
78 | O=C(Nc1cccc(C(=O)O)c1)Nc1ccc2c(c1)OCO2 | 2.17 µM
79 | COc1ccccc1C(=O)Nc1nc2ccccc2[nH]1 | 0.8 µM
80 | Cn1nc(CC(=O)Nc2ccc3c(c2)CCC3)c2ccccc2c1=O | 0.22 µM
81 | C=C1C(=O)O[C@@H]2C[C@@H](C)[C@@H]3C=CC(=O)[C@@]3(C)[C@@H](OC(C)=O)[C@H]12 | > 80 µM (inactive)
82 | Cc1ccc2nc(NC(=O)CCCC(=O)O)sc2c1 | 3.13 µM
83 | O=C(c1ccc(Br)cc1)c1cc([N+](=O)[O-])ccc1N1CCCCC1 | 24.5 µM (inactive)
84 | CCCCCCCCCn1ccc(=N)cc1 | 0.51 µM
85 | COc1cccc2c1C(CO)N1C(C#N)C3CC(C(=O)O)C(C1C2)N3C (stereo not drawn) | < 0.16 µM
86 | COC1=CC(=O)[C@]2(C=C1OC)OC[C@@H]1Oc3c(ccc4c3C=CC(C)(C)O4)C(=O)[C@@H]12 | 0.61 µM
87 | COc1cc(/C=N/NC(=S)Nc2cccc(C(=O)O)c2)ccc1O | 23.4 µM (inactive)
88 | Cc1nn(C(C)(C)C)c(C)c1/C=N/OC(=O)Nc1ccc(Cl)cc1 | < 0.16 µM

Row | SMILES | IC50
89 | O=C(CCl)N=c1sccn1Cc1ccc(Cl)cc1Cl | 21 µM (inactive)
90 | O=C(O)CSCC(=O)Nc1ccc(C2CCCCC2)cc1 | 0.47 µM
91 | COc1cc(NC(=O)COc2cc(O)c3c(c2)OC(C)(C)CC3=O)cc(OC)c1OC | 0.38 µM
92 | CC(=O)c1cn(Cc2ccccc2C#N)c2ccccc12 | 0.88 µM
93 | O=C(/C=C/c1ccccc1)Nc1cccc(C(=O)O)c1 | 2.59 µM
94 | C#CC(=O)N(c1cccc(OC)c1)C(C(=O)NC1CCCC1)c1cccs1 (stereo not drawn) | 2.65 µM
95 | CC(C)(C)c1ccc(C(=O)N2CCCCCC2=O)cc1 | 1.78 µM
96 | CCOc1ccc(NC(=O)Nc2cccc(C(=O)O)c2)cc1 | 1.85 µM
97 | CCOC(=O)C1CCCN(S(=O)(=O)c2ccc(S(=O)(=O)N(CC)CC)cc2)C1 (stereo not drawn) | 0.56 µM
98 | CCOc1ccc(S(=O)(=O)NCc2ccncc2)cc1 | 0.21 µM
99 | OCCCNc1nccc(-c2cc(Nc3cccc(Cl)c3)ncn2)n1 | 0.55 µM
100 | CCc1cc2c(Sc3nc4ccccc4s3)ncnc2s1 | 21.3 µM (inactive)
101 | COc1ccccc1C(=O)Nc1nc(-c2ccc(S(=O)(=O)N3CCOCC3)cc2)cs1 | 1.18 µM
102 | COc1cccc2c1C(=O)c1c(O)c3c(c(O)c1C2=O)C[C@@](O)(C(=O)CO)C[C@@H]3O[C@H]1C[C@H](N)[C@@H](O)[C@H](C)O1 | > 80 µM (inactive)
103 | Cc1cc(N2CCN(c3nc4ccccc4s3)CC2)n2ncnc2n1 | 1.26 µM
104 | CN(C(=O)OC(C)(C)C)c1ccc(-c2nc3ccccc3s2)cc1 | < 0.16 µM
105 | Cc1cc(C(=O)COC(=O)c2ccccc2O)c(C)n1CC1CCCO1 (stereo not drawn) | 0.38 µM
106 | COc1cccc2c1C(=O)c1c(O)c3c(c(O)c1C2=O)C[C@@](O)(C(=O)CO)C[C@@H]3O[C@H]1C[C@H](N)[C@H](O)[C@H](C)O1 | 26.9 µM (inactive)
107 | Cn1nccc1C(=O)NC1CCCc2c1cnn2-c1ccc(F)cc1F (stereo not drawn) | < 0.16 µM
108 | N=c1c2c(-c3ccccc3)c(-c3ccccc3)n(Cc3ccccc3)c2ncn1CCCn1ccnc1 | 6.97 µM
